ChEMBL document CHEMBL5352409, “Design, synthesis, and pharmacological evaluation of 2-(1-(1,3,4-thiadiazol-2-yl)piperidin-4-yl)ethan-1-ol analogs as novel glutaminase 1 inhibitors” (Eur J Med Chem, 2022)
pIC50: −log10 of the molar value. Active and inactive are the calls of the source. No cut-off for these calls is given here.

What was measured:
A549 [1] = test: Antiproliferative activity against human A549 cells assessed as reduction in cell viability; type: functional, cell-based
[2] = molecular target: T1, Glutaminase kidney isoform, mitochondrial (Homo sapiens, UniProt O94925); test: Inhibition of GLS1 (unknown origin)
T1 sequence (O94925 whole entry): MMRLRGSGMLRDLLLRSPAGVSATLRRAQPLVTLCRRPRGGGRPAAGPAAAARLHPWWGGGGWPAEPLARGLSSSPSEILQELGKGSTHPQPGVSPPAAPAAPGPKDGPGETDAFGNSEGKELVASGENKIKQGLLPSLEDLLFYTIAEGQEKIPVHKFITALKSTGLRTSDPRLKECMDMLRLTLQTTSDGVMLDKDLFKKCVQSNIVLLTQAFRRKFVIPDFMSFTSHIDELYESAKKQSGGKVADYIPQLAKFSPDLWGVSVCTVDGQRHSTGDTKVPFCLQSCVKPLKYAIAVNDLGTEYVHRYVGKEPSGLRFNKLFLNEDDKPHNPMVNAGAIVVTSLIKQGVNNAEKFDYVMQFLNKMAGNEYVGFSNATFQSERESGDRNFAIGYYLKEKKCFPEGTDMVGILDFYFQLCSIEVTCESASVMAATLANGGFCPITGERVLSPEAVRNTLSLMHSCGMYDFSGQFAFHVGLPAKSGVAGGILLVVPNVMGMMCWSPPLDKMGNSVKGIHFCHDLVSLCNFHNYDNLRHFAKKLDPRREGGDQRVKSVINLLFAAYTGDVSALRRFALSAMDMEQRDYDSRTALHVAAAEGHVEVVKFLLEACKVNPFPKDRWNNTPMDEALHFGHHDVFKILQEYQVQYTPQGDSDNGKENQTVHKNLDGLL

Homo sapiens = species: Homo sapiens; test: Selectivity ratio of IC50 for GLS2 (unknown origin) to IC50 for GLS1 (unknown origin)
A549 [3] = test: Inhibition of glutaminase in human A549 cells assessed as ratio of glutamine to glutamate level (Rv b= 0.45 +/- 0.011); type: cell-based
[4] = Terminal half life in rat at 3 mg/kg, po; type: ADME, organism-based; details: in vivo, read-out: beta t1/2 (converted)
[5] = Clearance in rat at 3 mg/kg, iv; type: ADME, organism-based; details: in vivo
[6] = Cmax in rat at 3 mg/kg, po; type: ADME, organism-based; design: dose 3 mg/kg, route po; details: in vivo
[7] = AUC(0 to t) in rat at 3 mg/kg, po; type: ADME, organism-based; design: dose 3 mg/kg, route po; details: in vivo
A549 [8] = test: Antitumor activity against human A549 cells xenografted in mouse model assessed as tumor growth inhibition at 100 mg/kg once daily via oral gavage administered for 28 days relative to control; type: functional; design: scale not given: the % may be the effect or the level left; details: time 28 day
[9] = Oral bioavailability in rat at 3 mg/kg; type: ADME, organism-based; details: in vivo
HCT-116 [10] = test: Antitumor activity against human HCT-116 cells xenografted in mouse model assessed as tumor growth inhibition at 100 mg/kg once daily via oral gavage administered for 28 days relative to control; type: functional; design: scale not given: the % may be the effect or the level left; details: time 28 day
HCT-116 [11] = test: Inhibition of colony formation in human HCT-116 cells at 2 to 8 uM; type: functional, cell-based; details: dose 2-8 µM
A549 [12] = test: Induction of cell cycle arrest in human A549 cells assessed as accumulation at G1 phase incubated for 48 hrs by propidium iodide staining based flow cytometry analysis; type: functional; details: dose 50-800 nM
A549 [13] = test: Induction of cell cycle arrest in human A549 cells assessed as accumulation of cells at G0/G1 phase at 50 nM incubated for 48 hrs by propidium iodide staining based flow cytometry analysis (Rvb=61.61%); type: functional
A549 [14] = test: Induction of cell cycle arrest in human A549 cells assessed as accumulation of cells at G0/G1 phase at 200 nM incubated for 48 hrs by propidium iodide staining based flow cytometry analysis (Rvb=61.61%); type: functional
A549 [15] = test: Induction of cell cycle arrest in human A549 cells assessed as accumulation of cells at G0/G1 phase at 400 nM incubated for 48 hrs by propidium iodide staining based flow cytometry analysis (Rvb=61.61%); type: functional
A549 [16] = test: Induction of cell cycle arrest in human A549 cells assessed as accumulation of cells at G0/G1 phase at 800 nM incubated for 48 hrs by propidium iodide staining based flow cytometry analysis (Rvb=61.61%); type: functional
A549 [17] = test: Induction of cell cycle arrest in human A549 cells assessed as accumulation of cells at G2/M phase at 50 nM incubated for 48 hrs by propidium iodide staining based flow cytometry analysis (Rvb=23.88%); type: functional
A549 [18] = test: Induction of cell cycle arrest in human A549 cells assessed as accumulation of cells at G2/M phase at 400 nM incubated for 48 hrs by propidium iodide staining based flow cytometry analysis (Rvb=23.88%); type: functional
A549 [19] = test: Induction of cell cycle arrest in human A549 cells assessed as accumulation of cells at S phase at 50 nM incubated for 48 hrs by propidium iodide staining based flow cytometry analysis (Rvb=14.51%); type: functional
A549 [20] = test: Induction of cell cycle arrest in human A549 cells assessed as accumulation of cells at S phase at 100 nM incubated for 48 hrs by propidium iodide staining based flow cytometry analysis (Rvb=14.51%); type: functional
A549 [21] = test: Induction of cell cycle arrest in human A549 cells assessed as accumulation of cells at S phase at 200 nM incubated for 48 hrs by propidium iodide staining based flow cytometry analysis (Rvb=14.51%); type: functional
A549 [22] = test: Induction of cell cycle arrest in human A549 cells assessed as accumulation of cells at S phase at 400 nM incubated for 48 hrs by propidium iodide staining based flow cytometry analysis (Rvb=14.51%); type: functional
A549 [23] = test: Induction of cell cycle arrest in human A549 cells assessed as accumulation of cells at S phase at 800 nM incubated for 48 hrs by propidium iodide staining based flow cytometry analysis (Rvb=14.51%); type: functional
HCT-116 [24] = test: Induction of intracellular ROS production in human HCT-116 cells by DCFH-DA staining based fluorescence microscopic analysis; type: functional, cell-based; details: dose 1-10 µM
A549 [25] = test: Induction of apoptosis in human A549 cells assessed as early apoptotic cells at 1 uM incubated for 48 hrs by annexin V-FITC and propidium iodide based flow cytometry analysis (Rvb =12.289%); type: functional
A549 [26] = test: Induction of apoptosis in human A549 cells assessed as early apoptotic cells at 5 uM incubated for 48 hrs by annexin V-FITC and propidium iodide based flow cytometry analysis (Rvb =12.289%); type: functional
A549 [27] = test: Induction of apoptosis in human A549 cells assessed as early apoptotic cells at 10 uM incubated for 48 hrs by annexin V-FITC and propidium iodide based flow cytometry analysis (Rvb =12.289%); type: functional
A549 [28] = test: Induction of apoptosis in human A549 cells assessed as late apoptotic cells at 10 uM incubated for 48 hrs by annexin V-FITC and propidium iodide based flow cytometry analysis (Rvb =9.696%); type: functional
[29] = Toxicity in human A549 cells xenografted in mouse assessed as body weight loss at 100 mg/kg administered via oral gavage for 28 days relative to control; type: organism-based; details: in vivo, 672 h, time 28 day
[30] = human, microsomes
Description: Metabolic stability in human liver microsome assessed as intrinsic clearance

HCT-116 [31] = test: cells; details: Homo sapiens
in vitro = details: human, liver microsomes

pIC50 (A549 [1]): 6.24
pIC50 [2]: 7.17
Ratio IC50 (Homo sapiens): > 100
half-life [4]: 19.8 h
CL [5]: 102 mL/min/kg
Cmax [6]: 41.3 ng/mL
AUCt [7]: 251.6 ng·h/mL
F [9]: 12.4%
CLH [30]: 15.6 g/mL/min
pIC50 (HCT-116 [31]): 6.38
half-life (in vitro): > 2 h
SMILES: CCCCCCN1CCC(CNC(=O)c2cccc(COCCC3CCN(c4nnc(NC(=O)Cc5ccccc5)s4)CC3)c2)CC1
Ratio (A549 [3]): 1.32
Activity (A549 [8]): 40.9%
Activity (HCT-116 [10]): 42%
inhibition (HCT-116 [11]): Active
Activity (A549 [12]): Dose-Dependent Effect
Activity (A549 [13]): 62.73%
Activity (A549 [14]): 66.93%
Activity (A549 [15]): 67.53%
Activity (A549 [16]): 68.55%
Activity (A549 [17]): 24.1%
Activity (A549 [18]): 18.77%
Activity (A549 [19]): 13.17%
Activity (A549 [20]): 17.76%
Activity (A549 [21]): 13.34%
Activity (A549 [22]): 13.76%
Activity (A549 [23]): 11.77%
Activity (HCT-116 [24]): Dose-Dependent Effect
Activity (A549 [25]): 14.845%
Activity (A549 [26]): 20.673%
Activity (A549 [27]): 16.025%
Activity (A549 [28]): 68.08%
Activity [29]: Non-Toxic
